Data as given in the NIST ThermoML archive (doi:10.1016/j.jct.2009.01.012).
± gives the expanded uncertainty stated by the source.

Legend:
[1] = refractive index (Na D-line) (dimensionless); conditions: 101.33 kPa, Liquid, Standard Abbe refractometry
[2] = 101.33 kPa, Liquid, Vibrating tube method

SMILES	refractive index ([1]; 293.15 K)	refractive index ([1]; 298.15 K)	refractive index ([1]; 313.15 K)	refractive index ([1]; 333.15 K)	mass density ([2]; 293.15 K) [kg/m3]	mass density ([2]; 298.15 K) [kg/m3]	mass density ([2]; 313.15 K) [kg/m3]	mass density ([2]; 333.15 K) [kg/m3]
CCn1cc[n+](C)c1.O=S(=O)([N-]S(=O)(=O)C(F)(F)F)C(F)(F)F	1.42351 ± 0.00072	1.42251 ± 0.00074	1.41849 ± 0.00074	1.41346 ± 0.00074	1519.7 ± 2.1	1514.7 ± 2.1	1499.6 ± 2.1	1479.7 ± 2.1
CCCCCCCCCCCCCC[P+](CCCCCC)(CCCCCC)CCCCCC.O=S(=O)([N-]S(=O)(=O)C(F)(F)F)C(F)(F)F	1.45164 ± 0.0008	1.44963 ± 0.00075	1.44561 ± 0.00076	1.43858 ± 0.00078	1069.1 ± 2	1065.4 ± 2	1054.5 ± 2	1039.9 ± 2
CCCCn1cc[n+](C)c1.COS(=O)(=O)[O-] [1-butyl-3-methylimidazolium methyl sulfate]	1.47876 ± 0.00072	1.47775 ± 0.00072	1.47473 ± 0.00073	1.46971 ± 0.00074	1214.7 ± 2	1211.3 ± 2	1201.5 ± 2	1188.4 ± 2
CC(=O)[O-].CCCCn1cc[n+](C)c1 [1-butyl-3-methylimidazolium acetate]	1.49481 ± 0.0008	1.49381 ± 0.00083	1.48879 ± 0.00083	1.48377 ± 0.00081	1056.2 ± 2.2	1053.2 ± 2.2	1044 ± 2.2	1032.2 ± 2.2
CCCC[n+]1ccn(C)c1.O=S(=O)([N-]S(=O)(=O)C(F)(F)F)C(F)(F)F	1.42853 ± 0.0008	1.42653 ± 0.00075	1.42251 ± 0.00075	1.41648 ± 0.00076	1440.8 ± 2.1	1436 ± 2.1	1421.6 ± 2.1	1402.6 ± 2.1
CCCCn1cc[n+](C)c1.O=S(=O)([O-])C(F)(F)F [1-butyl-3-methylimidazolium trifluoromethanesulfonate]	1.43758 ± 0.00072	1.43657 ± 0.00076	1.43155 ± 0.00076	1.42552 ± 0.00076	1303.5 ± 2	1299.5 ± 2	1287.7 ± 2	1272.1 ± 2
CCCCCCn1cc[n+](C)c1.F[P-](F)(F)(F)(F)F [1-hexyl-3-methylimidazolium hexafluorophosphate]	1.41849 ± 0.0008	1.41648 ± 0.00073	1.41346 ± 0.00073	1.40844 ± 0.00074	1296.4 ± 2	1292.4 ± 2	1280.4 ± 2	1264.9 ± 2
CCCCCCCCCCCCCC[P+](CCCCCC)(CCCCCC)CCCCCC.O=S(=O)([O-])C(F)(F)F	1.45967 ± 0.0008	1.45766 ± 0.00075	1.45365 ± 0.00076	1.44662 ± 0.00078	985.6 ± 2	982.3 ± 2	972.5 ± 2	959.6 ± 2
CCCCCCCCCCn1cc[n+](C)c1.O=S(=O)([N-]S(=O)(=O)C(F)(F)F)C(F)(F)F	1.43658 ± 0.00072	1.43557 ± 0.00076	1.43055 ± 0.00076	1.42452 ± 0.00076	1282.8 ± 2	1278.3 ± 2	1265.3 ± 2	1248.2 ± 2
CCCCCC[n+]1ccn(C)c1.O=S(=O)([N-]S(=O)(=O)C(F)(F)F)C(F)(F)F	1.43155 ± 0.0008	1.42954 ± 0.00075	1.42552 ± 0.00074	1.4205 ± 0.00074	1375.5 ± 2.1	1371 ± 2.1	1357.2 ± 2.1	1339.1 ± 2.1
CCCCCCCC[n+]1ccn(C)c1.F[P-](F)(F)(F)(F)F [1-octyl-3-methylimidazolium hexafluorophosphate]	1.42452 ± 0.00072	1.42351 ± 0.00074	1.41949 ± 0.00075	1.41347 ± 0.00076	1237.8 ± 2	1234 ± 2	1222.4 ± 2	1207.5 ± 2
CCCCCCCCCCCCCCn1cc[n+](C)c1.O=S(=O)([N-]S(=O)(=O)C(F)(F)F)C(F)(F)F			1.43456 ± 0.00076	1.42854 ± 0.00076			1200.6 ± 2	1184 ± 2
CCCCCCCCn1cc[n+](C)c1.O=S(=O)([N-]S(=O)(=O)C(F)(F)F)C(F)(F)F	1.43457 ± 0.0008	1.43256 ± 0.00075	1.42854 ± 0.00075	1.42251 ± 0.00076	1323.4 ± 2.1	1318.9 ± 2.1	1305.5 ± 2.1	1288 ± 2
CCCCn1cc[n+](C)c1.F[P-](F)(F)(F)(F)F [1-butyl-3-methylimidazolium hexafluorophosphate]	1.41045 ± 0.0008	1.40844 ± 0.00073	1.40543 ± 0.00073	1.4004 ± 0.00074	1367.9 ± 2.1	1363.7 ± 2.1	1351.3 ± 2.1	1334.9 ± 2.1
CCCCn1cc[n+](C)c1.F[B-](F)(F)F [1-butyl-3-methylimidazolium tetrafluoroborate]	1.42251 ± 0.00072	1.4215 ± 0.00074	1.41748 ± 0.00074	1.41246 ± 0.00074	1202.9 ± 2	1199.4 ± 2	1188.7 ± 2	1174.6 ± 2
CCCCCCCCCCCCn1cc[n+](C)c1.O=S(=O)([N-]S(=O)(=O)C(F)(F)F)C(F)(F)F	1.43958 ± 0.0008	1.43758 ± 0.00075	1.43356 ± 0.00075	1.42754 ± 0.00076	1249 ± 2	1244.7 ± 2	1231.8 ± 2	1215.1 ± 2
CC(=O)[O-].CCCCCCCCCCCCCC[P+](CCCCCC)(CCCCCC)CCCCCC [trihexyl(tetradecyl)phosphonium acetate]	1.48377 ± 0.00087	1.48176 ± 0.00085	1.47674 ± 0.00084	1.47072 ± 0.00083	894.5 ± 2.1	891.3 ± 2.1	882.3 ± 2.1	870.4 ± 2.1
